Measurements: the supplement of paper PMC11061612

What was measured:
Test in all cases: combination Emax (second highest fraction inhibited in the dose matrix, 72 h); higher = more inhibition; extreme values may be limits of the assay
[1] = tested on: EB2 (Burkitt's Lymphoma)
Method in brief: (§1)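 Bliss excess equals the observed combination effect minus the expected value EA + EB − EA·EB, where EA and EB are the effects of each agent alone. Combination Emax is the second-highest inhibition within the matrix. Inhibition was scaled from CellTiter-Glo 2.0 luminescence, with 0 set by vehicle wells and 1 by blank wells, after 72 hours of two-drug dosing of cells plated in 1536-well plates.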

[2] = tested on: NCI-H2087 (Lung Adenocarcinoma)
Method in brief: as §1

[3] = tested on: NCI-H1651 (Lung Adenocarcinoma)
Method in brief: as §1

[4] = tested on: CGTH-W-1 (Thyroid Gland Carcinoma)
Method in brief: as §1

[5] = tested on: NCI-H1703 (Squamous Cell Lung Carcinoma)
Method in brief: as §1

[6] = tested on: NCI-H441 (Lung Adenocarcinoma)
Method in brief: as §1

[7] = tested on: PEO1 (Ovarian Carcinoma)
Method in brief: as §1

[8] = tested on: KYSE-220 (Esophageal Squamous Cell Carcinoma)
Method in brief: as §1

[9] = tested on: EW-7 (Ewing's Sarcoma)
Method in brief: as §1

[10] = tested on: WM1552C (Melanoma)
Method in brief: as §1

[11] = tested on: IM-9 (Non-Cancerous)
Method in brief: as §1

[12] = tested on: HCC1395 (Breast Carcinoma)
Method in brief: as §1

[13] = tested on: SK-HEP-1 (Hepatocellular Carcinoma)
Method in brief: as §1

[14] = tested on: MDA-MB-436 (Breast Carcinoma)
Method in brief: as §1

[15] = tested on: SW620 (Colorectal Carcinoma)
Method in brief: as §1

[16] = tested on: LU-165 (Small Cell Lung Carcinoma)
Method in brief: as §1

[17] = tested on: A2780 (Ovarian Carcinoma)
Method in brief: as §1

[18] = tested on: 769-P (Kidney Carcinoma)
Method in brief: as §1

[19] = tested on: MHH-ES-1 (Ewing's Sarcoma)
Method in brief: as §1

[20] = tested on: JHH-2 (Hepatocellular Carcinoma)
Method in brief: as §1

CN(CCO)CC[C@H](CSc1ccccc1)Nc1ccc(S(=O)(=O)NC(=O)c2ccc(N3CCC([C@@H](O)c4ccccc4-c4ccc(Cl)cc4)CC3)cc2)cc1S(=O)(=O)C(F)(F)F [AZD4320] + C1CN(CCC1(C(=O)N[C@@H](CCO)C2=CC=C(C=C2)Cl)N)C3=NC=NC4=C3C=CN4 [Capivasertib] (first compound max 1 µM, 7x7, partner max 3 µM)
combination Emax [1]: 0.534 | combination Emax [2]: 0.232 | combination Emax [3]: 0.193 | combination Emax [4]: 0.19 | combination Emax [5]: 0.402 | combination Emax [6]: 0.173 | combination Emax [7]: 0.432 | combination Emax [8]: 0.237 | combination Emax [9]: 0.861 | combination Emax [10]: 0.183 | combination Emax [11]: 0.586 | combination Emax [12]: 0.408 | combination Emax [13]: 0.245 | combination Emax [14]: 0.142 | combination Emax [15]: 0.137 | combination Emax [16]: 0.581 | combination Emax [17]: 0.515 | combination Emax [18]: 0.576 | combination Emax [19]: 0.48 | combination Emax [20]: 0.539

C[C@@H](c1ccc2nccn2c1)n1nnc2ncc(-c3cnn(C)c3)nc21 [Savolitinib] + CC1(C)CCC(CN2CCN(c3ccc(C(=O)NS(=O)(=O)c4ccc(NCC5CCOCC5)c([N+](=O)[O-])c4)c(Oc4cnc5[nH]ccc5c4)c3)CC2)=C(c2ccc(Cl)cc2)C1 [Venetoclax] (first compound max 1 µM, 7x7, partner max 1 µM)
combination Emax [1]: 0.153 | combination Emax [2]: 0.184 | combination Emax [3]: 0.186 | combination Emax [4]: 0.0942 | combination Emax [5]: 0.139 | combination Emax [6]: 0.171 | combination Emax [7]: 0.219 | combination Emax [8]: 0.146 | combination Emax [9]: 0.118 | combination Emax [10]: 0.0794 | combination Emax [11]: 0.385 | combination Emax [12]: 0.247 | combination Emax [13]: 0.164 | combination Emax [14]: 0.28 | combination Emax [15]: 0.124 | combination Emax [16]: 0.221 | combination Emax [17]: 0.14 | combination Emax [18]: 0.0824 | combination Emax [19]: 0.185 | combination Emax [20]: 0.0863

N#Cc1cnc(Nc2cc(NC[C@H]3CNCCO3)c(C(F)(F)F)cn2)cn1 [SRA737] + C=CCn1c(=O)c2cnc(Nc3ccc(N4CCN(C)CC4)cc3)nc2n1-c1cccc(C(C)(C)O)n1 [AZD1775] (first compound max 10 µM, partner max 1 µM)
combination Emax [1]: 0.911 | combination Emax [2]: 0.645 | combination Emax [3]: 0.713 | combination Emax [4]: 0.432 | combination Emax [5]: 0.972 | combination Emax [6]: 0.446 | combination Emax [7]: 0.48 | combination Emax [8]: 0.711 | combination Emax [9]: 0.954 | combination Emax [10]: 0.751 | combination Emax [11]: 1 | combination Emax [12]: 0.753 | combination Emax [13]: 0.23 | combination Emax [14]: 0.274 | combination Emax [15]: 0.587 | combination Emax [16]: 0.598 | combination Emax [17]: 0.966 | combination Emax [18]: 0.9 | combination Emax [19]: 0.667 | combination Emax [20]: 0.652
